{
  "source": "paper PMC8011931",
  "about": "“Identification, Structure–Activity Relationship, and Biological Characterization of 2,3,4,5-Tetrahydro-1H-pyrido[4,3-b]indoles as a Novel Class of CFTR Potentiators” (Journal of Medicinal Chemistry, 2020)",
  "key": {"[1]": {"assay": "Liver microsomal stability, phase I (NADPH), human", "type": "in vitro ADME", "conditions": "for human LM_NADPH parent compound remaining at the last time point (in parentheses): 4.6 μM, 60 min; for half-life at 4.6 μM / half-life at 1 h, 4.6 µM: human, liver microsomes, pH 7.5, 0.1% DMSO, n ≥ 3, read-out: human LM_NADPH t1/2", "experimental": "(§1) Phase I: 10 mM DMSO stock solution of the test compound was preincubated at 37 °C for 15 min with rat, dog, or human liver microsomes in 0.1 M Tris–HCl buffer (pH 7.5) with 10% DMSO. The final concentration was 4.6 μM. After preincubation, the cofactors (NADPH, G6P, G6PDH, and MgCl2 predissolved in 0.1 M Tris–HCl) were added to the incubation mixture and the incubation was continued at 37 °C for 1 h.\n(§2) For both phase I and II studies: At each time point (0, 5, 15, 30, and 60 min), 30 μL of the incubation mixture was diluted with 200 μL of cold CH3CN spiked with 200 nM of an appropriate internal standard, followed by centrifugation at 3270g for 15 min. The supernatant was further diluted with H2O (1:1) for analysis. A reference incubation mixture (microsomes without cofactors) was prepared for each test compound and analyzed at t = 0 and 60 min in order to verify the compound’s stability in the matrix. The two time points were diluted as for the time points of the incubation mixture above. The supernatants were analyzed by LC/MS–MS on a Waters ACQUITY UPLC/MS TQD system consisting of a TQD (triple quadrupole detector) mass spectrometer equipped with an electrospray ionization interface and a photodiode array eλ detector. Electrospray ionization was applied in positive mode. Compound-dependent parameters as MRM transitions and collision energy were developed for each compound. The analyses were run on an ACQUITY UPLC BEH C18 (50 × 2.1 mm ID, particle size 1.7 μm) with a VanGuard BEH C18 precolumn (5 × 2.1 mm ID, particle size 1.7 μm) at 40 °C, using H2O + 0.1% HCOOH (A) and CH3CN + 0.1% HCOOH (B) as the mobile phase. The percentage of test compound remaining at each time point relative to t = 0 was calculated by the response factor on the basis of the internal standard peak area. The percentage of test compound versus time was plotted and fitted by GraphPad Prism (GraphPad Software, Version 5 for Windows, CA, USA, www.graphpad.com) to estimate the compound’s half-life (t1/2), which was reported as mean value along with the standard deviation (n = 3)."}, "HepG2 cells": {"test_system": "HepG2 cells", "assay": "HepG2 cell toxicity assay (CTG and MTT)", "type": "cell-based", "conditions": "at 20 μM, 24 h, CTG and MTT assays; percent of vehicle-treated controls", "experimental": "In order to assess a possible liver toxicity liability, the selected analogues were also tested in HepG2 cells at two concentrations (2.0 and 20 μM) for 24 h, along with a reference compound (rotenone). A reduction of cell viability to less than 80% was set as the threshold for estimation of cytotoxicity.[42]\nTo increase the detection of drug-induced mitochondrial effects in a preclinical cell-based assay, HepG2 hepatocellular carcinoma cells (ATCC HB-8065) were forced to rely on mitochondrial oxidative phosphorylation rather than glycolysis by substituting galactose (10 mM) for glucose (25 mM) in the growth media (DMEM, Life Technologies).\nHigh-glucose media: high-glucose DMEM (Invitrogen 11995-065) containing 25 mM glucose, 1.0 mM sodium pyruvate, supplemented with 5 mM N-(2-hydroxyethyl)piperazine-N′-(2-ethanesulfonic acid) (HEPES), and 10% FBS. Galactose media: DMEM deprived of glucose (Invitrogen 11966-025), supplemented with 10 mM galactose, 2.0 mM glutamine (6 mM final), 5.0 mM HEPES, 10% FBS, and 1.0 mM sodium pyruvate.\nFor the cytotoxicity assay, cells were plated at 20,000 cells/well in 100 μL of cell culture media in 96-well plates and allowed to grow overnight. The cells were treated for 24 h with 2.0 or 20 μM of each compound. All compounds were dissolved in DMSO with a stock concentration of 4 mM. The first dilution step of compounds was prepared in DMSO (200× stock solutions), while the second dilution step was carried out in a complete cell culture medium (5% DMSO). Of this dilution, 10 μL were added to the wells of the 96-well plate, with a final DMSO concentration of 0.5%. Rotenone, a well-known mitochondrial inhibitor, was used as a reference compound. After treatment, cellular viability was assessed by using two different assays, run on independent plates: the CellTiter-Glo (CTG) Luminescent Cell Viability Assay (Promega), which determines the number of viable cells based on the quantitation of the ATP present, and the thiazolyl blue tetrazolium […] (MTT) dye (Aldrich), which is converted to water-insoluble MTT formazan crystals by mitochondrial dehydrogenases of living cells. Each experimental condition (i.e., control, reference, and compounds’ doses) has been tested in three technical replicates."}, "[2]": {"assay": "Liver microsomal stability, phase I (NADPH), dog", "type": "in vitro ADME", "conditions": "for dog LM_NADPH parent compound remaining at the last time point (in parentheses): 4.6 μM, 60 min; for half-life at 4.6 μM: dog, liver microsomes, pH 7.5, 0.1% DMSO, n ≥ 3, read-out: dog LM_NADPH t1/2", "experimental": "[…] The final concentration was 4.6 μM. After preincubation, the cofactors (NADPH, G6P, G6PDH, and MgCl2 predissolved in 0.1 M Tris–HCl) were added to the incubation mixture and the incubation was continued at 37 °C for 1 h.\nas §2"}, "[3]": {"assay": "Liver microsomal stability, phase I (NADPH), rat", "type": "in vitro ADME", "conditions": "for half-life at 1 h, 4.6 µM / half-life at 4.6 μM: rat, liver microsomes, pH 7.5, 0.1% DMSO, n ≥ 3, read-out: rat LM_NADPH t1/2; for rat LM_NADPH parent compound remaining at the last time point (in parentheses): 4.6 μM, 60 min", "experimental": "as §1, §2"}, "[4]": {"assay": "Liver microsomal stability, phase II (UDPGA), human", "type": "in vitro ADME", "conditions": "for human LM_UDPGA parent compound remaining at the last time point (in parentheses): 4.6 μM, 60 min; for half-life at 4.6 μM: human, liver microsomes, pH 7.5, 0.1% DMSO, n ≥ 3, read-out: human LM_UDPGA t1/2", "experimental": "as §1, with “II:” for “I:”, “with” for “with rat, dog, or”, “microsomes added alamethicin” for “microsomes”, “(UDPGA, D-saccharic acid lactone,” for “(NADPH, G6P, G6PDH,”\nas §2"}},
  "data": [
    {"compound": "O=C(c1cc(C(F)(F)F)[nH]n1)N1CCc2[nH]c3c(F)ccc(F)c3c2C1", "note": "[Compound 29, (6,9-Difluoro-1,3,4,5-tetrahydro-2H-pyrido[4,3-b]indol-2-yl)-(5-(trifluoromethyl)-1H-pyrazol-3-yl)methanone]", "values": [
      {"measurement": "human LM_NADPH parent compound remaining at the last time point (in parentheses)", "setting": "[1]", "result": ">60 (60) %"},
      {"measurement": "half-life at 4.6 μM", "setting": "[1]", "result": "> 60", "unit": "min"},
      {"measurement": "HepG2 (% survival)", "setting": "HepG2 cells", "result": ">80", "unit": "%"},
      {"measurement": "dog LM_NADPH parent compound remaining at the last time point (in parentheses)", "setting": "[2]", "result": 93, "unit": "%"},
      {"measurement": "half-life at 4.6 μM", "setting": "[2]", "result": "> 60", "unit": "min"},
      {"measurement": "half-life at 1 h, 4.6 µM", "setting": "[3]", "result": "50 ± 9", "unit": "min"}
    ]},
    {"compound": "COc1cc(F)c2[nH]c3c(c2c1)CN(C(=O)c1cc(C(F)(F)F)[nH]n1)CC3", "note": "[Compound 25, (6-Fluoro-8-methoxy-1,3,4,5-tetrahydro-2H-pyrido[4,3-b]indol-2-yl)-(5-(trifluoromethyl)-1H-pyrazol-3-yl)methanone]", "values": [
      {"measurement": "half-life at 1 h, 4.6 µM", "setting": "[1]", "result": "33 ± 1", "unit": "min"},
      {"measurement": "HepG2 (% survival)", "setting": "HepG2 cells", "result": ">80", "unit": "%"},
      {"measurement": "dog LM_NADPH parent compound remaining at the last time point (in parentheses)", "setting": "[2]", "result": 90, "unit": "%"},
      {"measurement": "half-life at 4.6 μM", "setting": "[2]", "result": "> 60", "unit": "min"},
      {"measurement": "half-life at 1 h, 4.6 µM", "setting": "[3]", "result": "20 ± 1", "unit": "min"}
    ]},
    {"compound": "O=C(c1cc(C(F)(F)F)[nH]n1)N1CCc2[nH]c3c(F)cccc3c2C1", "note": "[Compound 20, (6-Fluoro-1,3,4,5-tetrahydro-2H-pyrido[4,3-b]indol-2-yl)-(5-(trifluoromethyl)-1H-pyrazol-3-yl)methanone]", "values": [
      {"measurement": "human LM_NADPH parent compound remaining at the last time point (in parentheses)", "setting": "[1]", "result": 78, "unit": "%"},
      {"measurement": "half-life at 4.6 μM", "setting": "[1]", "result": "> 60", "unit": "min"},
      {"measurement": "HepG2 (% survival)", "setting": "HepG2 cells", "result": ">80", "unit": "%"},
      {"measurement": "dog LM_NADPH parent compound remaining at the last time point (in parentheses)", "setting": "[2]", "result": 85, "unit": "%"},
      {"measurement": "half-life at 4.6 μM", "setting": "[2]", "result": "> 60", "unit": "min"},
      {"measurement": "rat LM_NADPH parent compound remaining at the last time point (in parentheses)", "setting": "[3]", "result": 64, "unit": "%"},
      {"measurement": "half-life at 4.6 μM", "setting": "[3]", "result": "> 60", "unit": "min"}
    ]},
    {"compound": "COc1ccc2[nH]c3c(c2c1)CN(C(=O)c1cc(C(F)(F)F)[nH]n1)CC3", "note": "[Compound 3, (8-Methoxy-1,3,4,5-tetrahydropyrido[4,3-b]indol-2-yl)-[5-(trifluoromethyl)-1H-pyrazol-3-yl]methanone]", "values": [
      {"measurement": "half-life at 1 h, 4.6 µM", "setting": "[1]", "result": "42 ± 11", "unit": "min"},
      {"measurement": "HepG2 (% survival)", "setting": "HepG2 cells", "result": ">80", "unit": "%"},
      {"measurement": "dog LM_NADPH parent compound remaining at the last time point (in parentheses)", "setting": "[2]", "result": 68, "unit": "%"},
      {"measurement": "half-life at 4.6 μM", "setting": "[2]", "result": "> 60", "unit": "min"},
      {"measurement": "half-life at 1 h, 4.6 µM", "setting": "[3]", "result": "30 ± 1", "unit": "min"}
    ]},
    {"compound": "Cc1ccc(F)c2[nH]c3c(c12)CN(C(=O)c1cc(C(F)(F)F)[nH]n1)[C@H](C)C3", "note": "[Compound 39, (R)-(6-Fluoro-3,9-dimethyl-1,3,4,5-tetrahydro-2H-pyrido[4,3-b]indol-2-yl)-(5-(trifluoromethyl)-1H-pyrazol-3-yl)methanone]", "values": [
      {"measurement": "human LM_UDPGA parent compound remaining at the last time point (in parentheses)", "setting": "[4]", "result": 79, "unit": "%"},
      {"measurement": "half-life at 4.6 μM", "setting": "[4]", "result": "> 60", "unit": "min"},
      {"measurement": "human LM_NADPH parent compound remaining at the last time point (in parentheses)", "setting": "[1]", "result": 71, "unit": "%"},
      {"measurement": "half-life at 4.6 μM", "setting": "[1]", "result": "> 60", "unit": "min"},
      {"measurement": "HepG2 (% survival)", "setting": "HepG2 cells", "result": ">80", "unit": "%"},
      {"measurement": "dog LM_NADPH parent compound remaining at the last time point (in parentheses)", "setting": "[2]", "result": 92, "unit": "%"},
      {"measurement": "half-life at 4.6 μM", "setting": "[2]", "result": "> 60", "unit": "min"},
      {"measurement": "rat LM_NADPH parent compound remaining at the last time point (in parentheses)", "setting": "[3]", "result": 70, "unit": "%"},
      {"measurement": "half-life at 4.6 μM", "setting": "[3]", "result": "> 60", "unit": "min"}
    ]},
    {"compound": "Cc1ccc(F)c2[nH]c3c(c12)CN(C(=O)c1cc(C(F)(F)F)[nH]n1)CC3", "note": "[Compound 30, (6-Fluoro-9-methyl-1,3,4,5-tetrahydro-2H-pyrido[4,3-b]indol-2-yl)-(5-(trifluoromethyl)-1H-pyrazol-3-yl)methanone]", "values": [
      {"measurement": "human LM_UDPGA parent compound remaining at the last time point (in parentheses)", "setting": "[4]", "result": 75, "unit": "%"},
      {"measurement": "half-life at 4.6 μM", "setting": "[4]", "result": "> 60", "unit": "min"},
      {"measurement": "half-life at 1 h, 4.6 µM", "setting": "[1]", "result": "53 ± 2", "unit": "min"},
      {"measurement": "HepG2 (% survival)", "setting": "HepG2 cells", "result": ">80", "unit": "%"},
      {"measurement": "dog LM_NADPH parent compound remaining at the last time point (in parentheses)", "setting": "[2]", "result": 92, "unit": "%"},
      {"measurement": "half-life at 4.6 μM", "setting": "[2]", "result": "> 60", "unit": "min"},
      {"measurement": "half-life at 1 h, 4.6 µM", "setting": "[3]", "result": "32 ± 1", "unit": "min"}
    ]}
  ]
}
